From patent US12042476B2, “Methods for the treatment of lysosomal storage diseases” (McMaster University, priority 2022, dated 2024)
Values joined by “and” are separate entries in the source; they are usually repeats but may differ in a detail not shown here. Equal values may be shown once. “Also recorded” adds a separate entry of the source.

Key:
Assay type in all cases: in vivo, mouse
hexb^−/− mice [1] = assay: Survival of Sandhoff (hexb−/−) mice given 4-PBA in drinking water, Mantel-Cox analysis
Method: Mouse work was conducted under the animal utilization protocol (AUP) in accordance with the Ontario Animals for Research Act specifications and the Animal Research Ethics Board (AREB) guidelines. The Sandhoff model mice (hexb^−/− on a C57BL/6 background) were generously donated by Dr. R. Gravel (University of Calgary, Canada) and have been previously characterized.
(§1) Protocol one: Two groups of hexb^−/− mice (n=10 per group); One group was administered 4-PBA (Scandinavian Formulas, Inc.) 4 mg/ml (0.4% w/v) in drinking water at 40 d of age. Body weights and vitals were monitored, and motor neuromuscular function were assessed every other day starting at 50 d of age until end point.
(§2) To assess the efficacy of chemical chaperone 4-PBA in reducing ER stress, hexb^−/− mice were administered 4-PBA in their drinking water at 40 d of age and underwent behavioral testing beginning at 7 weeks of age. Utilizing several behavioral tests such as wire hang, body weight, and righting response, measures of degeneration of cerebellar and motor neuromuscular functions were collected (FIG. 14). […] Lastly, an analysis of survivability was conducted using a Mantel-Cox test (FIG. 14 D). […] Overall, an increase of 16 days was noted, with 127 days as the median survival age for untreated hexb^−/− mice and 143 days for 4-PBA treated hexb^−/− mice.

hexb^−/− mice [2] = assay: Wire hang test in hexb−/− mice; conditions: hexb−/− mice treated with 4-PBA vs untreated
Method: as §1, §2

hexb^−/− mice [3] = assay: Righting reflex / righting response in hexb−/− mice
Method: as §1, §2

[4] = Body mass of hexb−/− mice; conditions: hexb−/− mice with 4-PBA compared to wildtype
Method: as §1, §2

[5] = test system: phosphorylated eukaryotic initiation factor 2 alpha (p-eIF2α); assay: Immunofluorescence of p-eIF2α and YY1 in spinal cord of hexb−/− mice
Excerpt: (§3) Protocol Two: Two groups of hexb^−/− mice at 40 d of age (n=4 per group) were set. […] Mice were perfused at 80 d, with formalin and processed for immunocytochemistry. Spine sections from treated and untreated mice were immunolabelled with multiple antibodies and evaluated.
(§4) Spinal cords from hexb^+/+ and hexb^−/− mice were harvested at 40, 60, 80, 100, and 120 d and embedded in paraffin as described above. Samples were rehydrated, first by washing slides with xylene then by washing them with a 1:1 solution of xylene and ethanol (EtOH) followed by washes in 100% EtOH, 95% EtOH, 70% EtOH, 70% EtOH/1% lithium carbonate solution, 70% EtOH, and finally, 50% EtOH. Next, antigen retrieval in a sodium citrate buffer (pH 6) was performed by microwaving the slides at 1 min intervals until boiling and then maintaining a boil for 5 minutes. The slides were then washed with tap water followed by a wash in glycine. […]
(§5) UPR activation was assessed through immunofluorescent staining of phosphorylated eukaryotic initiation factor 2 alpha (p-eIF2α) positive neurons and transcription factor YY1 in spinal cord sections from hexb^−/− mice that were treated or untreated with 4-PBA for (FIG. 15). […] Furthermore, the degree of apoptotic events occurring during disease pathogenesis with and without 4-PBA treatment was evaluated (FIG. 16). […]

cleaved caspase 7 = assay: Immunofluorescence of cleaved caspase 7 and NeuN in spinal cord; conditions: after 4-PBA treatment vs untreated
Excerpt: as §3, §4, §5

[6] = test system: ChAT-positive motor neurons (AHNs); assay: Immunofluorescence of ChAT and GFAP in anterior horn of spinal cord; conditions: 4-PBA treated hexb−/− mice
Excerpt: as §3
(§6) Spinal cords from hexb^+/+ and hexb^−/− mice were harvested at 40, 60, 80, 100, and 120 d and embedded in paraffin as described above. Samples were rehydrated, first by washing slides with xylene then by washing them with a 1:1 solution of xylene and ethanol (EtOH) followed by washes in 100% EtOH, 95% EtOH, 70% EtOH, 70% EtOH/1% lithium carbonate solution, 70% EtOH, and finally, 50% EtOH. Next, antigen retrieval in a sodium citrate buffer (pH 6) was performed by microwaving the slides at 1 min intervals until boiling and then maintaining a boil for 5 minutes. The slides were then washed with tap water followed by a wash in glycine. Following, the slides were then incubated with bloxall blocking solution for 10 minutes, followed by a 5 minute wash with PBS. Slides were then blocked with 2.5% horse serum for 20 minutes. Samples were then double labelled with a combination of anti-GFAP (1:100, Sigma; G9269), anti-ChAT (1:200, SIGMA), anti-Calretinin (1:200, Proteintech) and anti-NeuN (1:100, novus biologicals; N.BP1-92693). Slides were incubated with antibodies overnight at 4° C. Samples were washed with 1×PBS+0.05% TWEEN20 for 3×5 minutes, prior to application of the secondary antibody. Following, slides were double labeled with appropriate Alexa Fluor secondaries (Invitrogen, goat anti-rabbit 488: A11037, goat anti-mouse 594: A11029) and then again washed with 1×PBS+0.05% TWEEN20. Finally, the slides were mounted with ProLong Diamond antifade mountant reagent with DAPI (Invitrogen: P36966). Samples were imaged using Ziess Axiovert 200 scope equipped with an HBO 100 mercury lamp.
One of the hall marks of motor neurons within the spinal cord is the enzyme choline acetyltransferase (ChAT). […]

[7] = test system: Calretinin-positive interneurons; assay: Immunofluorescence of Calretinin in spinal cord sections; conditions: 4-PBA treated hexb−/− mice
Excerpt: as §3
as §6, with “Samples were washed with 1×PBS+0.05% TWEEN20 for 3×5 minutes, prior to application of the secondary antibody. Following, slides were double labeled with appropriate Alexa Fluor secondaries (Invitrogen, goat anti-rabbit 488: A11037, goat anti-mouse 594: A11029) and then again washed with 1×PBS+0.05% TWEEN20. Finally, the slides were mounted with ProLong Diamond antifade mountant reagent with DAPI (Invitrogen: P36966). Samples were imaged using Ziess Axiovert 200 scope equipped with an HBO 100 mercury lamp.” left out

muscle fibers = assay: Cross-sectional area of muscle fibers from muscles surrounding the spinal cord; conditions: 4-PBA treated hexb−/− mice, 80 d
Excerpt: as §3
Neuromuscular deficits are a highly prevalent consequence of Sandhoff disease. Therefore, cell body sectional area of the anterior horn neurons and the cross-sectional area of muscle fibers from the muscles surrounding the spinal cord of 80 d hexb^+/+ and hexb^−/− mice were evaluated (FIG. 19). Within hexb^+/+ mice, muscle fibres have an average area of ˜1000 um^2 while in contrast hexb^−/− mice show a 44% reduction in area with an average of −570 um^2. Such a drastic reduction early in disease pathology indicates mass muscle atrophy and neuronal loss has already occurred.

ATF6 = ATF6 expression after 4-PBA treatment

In the case of O=C(O)CCCc1ccccc1 [4-PBA, 4-phenylbutyric acid], the “survival / life span (in words)” value (hexb^−/− mice [1]; hexb−/− mice with 4-PBA vs without, Mantel-Cox P<0.001) is reported as “beneficial impact on lifespan; also recorded: significant improvement in motor neuromuscular function and life span; also recorded: lived significantly longer”, the median survival (hexb^−/− mice [1]; hexb−/− mice, 4-PBA 4 mg/ml (0.4% w/v) in drinking water from 40 d of age, untreated 127 days) is reported as 143 days and the “increase of median survival over untreated hexb−/− mice” value (hexb^−/− mice [1]; hexb−/− mice, 4-PBA 4 mg/ml in drinking water from 40 d of age) is reported as 16 days. The wire hang time (hexb^−/− mice [2]) was “significant increase in wire hang time; also recorded: longer wire hang”, the “righting reflex / righting response time” value (hexb^−/− mice [3]; hexb−/− mice treated with 4-PBA vs untreated) was “significantly faster righting response; also recorded: significantly faster righting reflex” and the “delay in righting response time impairment” value (hexb^−/− mice [3]; treated vs untreated hexb−/− mice (untreated impaired by 17 weeks of age)) was 2 week. The body mass [4] was “restored hexb^−/− mice weights to wildtype levels”, the “nuclear localization of p-eIF2α” value ([5]; hexb−/− mice after 4-PBA treatment vs untreated) was “increase in the nuclear localization” and the “number of cytosolic p-eIF2α-positive neurons in spinal cord” value ([5]; hexb−/− mice treated with 4-PBA from 40 d, perfused at 80 d, vs untreated) was “significant reduction”. For the same molecule, the “number of cCas7 positive neurons in spinal cord” value (cleaved caspase 7) was “significant reduction in the number of cCas7 positive neurons; also recorded: suppressed c-Cas7”, the C-boutons [6] was “more prevalent around AHNs motor neurons and throughout the anterior horn” and the “ChAT staining / ChAT-positive motor neurons in anterior horn” value [6] was “ChAT staining was normalized; also recorded: intense cytosolic ChAT staining within viable AHNs; also recorded: ChAT-positive motor neurons were maintained in anterior horn”. For the same molecule, the “GFAP staining in anterior horn” value [6] was “intense GFAP staining”, the “Calretinin-positive interneurons within the anterior horn region” value [7] was “very little Calretinin-positive interneurons” and the “muscle fiber cross-sectional area vs hexb+/+ (in words)” value (muscle fibers) was “no significant difference; also recorded: maintained normal cross section area of muscle fibers”. The “muscle fiber cross-sectional area (average)” value (muscle fibers; hexb+/+ ~1000, untreated hexb−/− ~570) was 900 um^2 and 850 um^2 and the ATF6 expression (ATF6) was “upregulation of ATF6”.
